Common to all, as to type: functional
A short description of test [1]: Antibacterial activity against Eberthella typhosa ATCC 14028 after 24 hrs by micro broth dilution assay. To be noted: ATCC 14028, 24 h. A general note: Broth dilution looks for growth in wells or tubes with falling amounts of substance.
Another test deals with Aspergillus flavus. Briefly: Antifungal activity against Aspergillus flavus ATCC 204304 after 24 hrs by micro broth dilution assay. To be noted: ATCC 204304, 24 h.
The subject of another test is Bacillus spizizenii. As to the kind of experiment: Antibacterial activity against Bacillus subtilis ATCC 6633 after 24 hrs by micro broth dilution assay. To be noted: ATCC 6633, 24 h.
For a further test, the system named is Candida albicans. Briefly: Antifungal activity against Candida albicans ATCC 10231 after 24 hrs by micro broth dilution assay. To be noted: ATCC 10231, 24 h.
In a further test the test system is Candida. Briefly: Antifungal activity against Candida mycoderma ATCC 9888 after 24 hrs by micro broth dilution assay. To be noted: ATCC 9888, 24 h.
The test system of test [2] is Staphylococcus aureus. As to the kind of experiment: Antibacterial activity against methicillin-resistant Staphylococcus aureus N315 after 24 hrs by micro broth dilution assay. To be noted: N315, 24 h.
The subject of test [3] is Staphylococcus aureus. Briefly: Antibacterial activity against Staphylococcus aureus ATCC 25923 after 24 hrs by micro broth dilution assay. To be noted: ATCC 25923, 24 h.
For another test, the system named is Micrococcus luteus. Briefly: Antibacterial activity against Micrococcus luteus ATCC 4698 after 24 hrs by micro broth dilution assay. To be noted: ATCC 4698, 24 h.
Another test relates to Bacillus sp. As to the kind of experiment: Antibacterial activity against Bacillus proteus ATCC 13315 after 24 hrs by micro broth dilution assay. To be noted: Bacillus sp. (in: firmicutes), ATCC 13315, 24 h.
The next test deals with Pseudomonas aeruginosa. Briefly: Antibacterial activity against Pseudomonas aeruginosa ATCC 27853 a after 24 hrs by micro broth dilution assay. To be noted: ATCC 27853, 24 h.
Another test has as its system Escherichia coli. Briefly: Antibacterial activity against Escherichia coli DH52 after 24 hrs by micro broth dilution assay. To be noted: DH52, 24 h.
Another test concerns Saccharomyces cerevisiae. As to the kind of experiment: Antifungal activity against Beer yeast ATCC 9763 after 24 hrs by micro broth dilution assay. To be noted: ATCC 9763, 24 h.
In another test the test system is Cyberlindnera jadinii. Briefly: Antifungal activity against Candida utilis ATCC 9950 after 24 hrs by micro broth dilution assay. To be noted: Williopsis jadinii, ATCC 9950, 24 h.

This note sets out measurements from ChEMBL document CHEMBL3621068, “Synthesis and biological evaluation of a new class of quinazolinoneazoles as potential antimicrobial agents and their interactions with calf thymus DNA and human serum albumin” (Medchemcomm, 2015).

The structures appear in SMILES notation. Converted amounts (≈) assume the structure as drawn. Some results are limits rather than exact numbers.

Regarding `O=c1c2ccc(F)cc2ncn1CCn1cnc([N+](=O)[O-])c1`, the MIC was 420 µM (≈ 127 µg/mL) in test [1]; greater than 1690 µM against Aspergillus flavus; 50 µM (≈ 15.2 µg/mL) against Bacillus spizizenii; 50 µM (≈ 15.2 µg/mL) with Candida albicans; 840 µM (≈ 255 µg/mL) against Candida; 210 µM (≈ 63.7 µg/mL) in the test on Staphylococcus aureus [2]. For the same compound, the MIC against Staphylococcus aureus [3] is 840 µM (≈ 255 µg/mL); against Micrococcus luteus, 50 µM (≈ 15.2 µg/mL); with Bacillus sp., 420 µM (≈ 127 µg/mL); with Pseudomonas aeruginosa, greater than 1690 µM; in the test with Escherichia coli it was 840 µM (≈ 255 µg/mL); with Saccharomyces cerevisiae it was 210 µM (≈ 63.7 µg/mL). It took 420 µM (≈ 127 µg/mL) to inhibit growth in the test on Cyberlindnera jadinii (MIC).
For the compound `O=c1c2ccc(Cl)cc2ncn1CCCCBr`, the minimum inhibitory concentration (MIC) in test [1] is greater than 1620 µM; against Aspergillus flavus it was greater than 1620 µM; with Bacillus spizizenii, 1620 µM (≈ 511 µg/mL); against Candida albicans, greater than 1620 µM; against Candida, greater than 1620 µM; in the test on Staphylococcus aureus [2] it was 810 µM (≈ 256 µg/mL). Moreover, the minimum inhibitory concentration (MIC) against Staphylococcus aureus [3] was greater than 1620 µM; against Micrococcus luteus, 810 µM (≈ 256 µg/mL); in the test with Bacillus sp. it was 410 µM (≈ 129 µg/mL); in the test with Pseudomonas aeruginosa, greater than 1620 µM; against Escherichia coli it was 810 µM (≈ 256 µg/mL); in the test with Saccharomyces cerevisiae, 810 µM (≈ 256 µg/mL). Further, 410 µM (≈ 129 µg/mL) was the least that counted as inhibitory in the test on Cyberlindnera jadinii (MIC).
Turning to `O=c1c2ccc(F)cc2ncn1CCCCCBr`, the minimum inhibitory concentration (MIC) was greater than 1630 µM in test [1]; 820 µM (≈ 257 µg/mL) in the test with Aspergillus flavus; 1630 µM (≈ 510 µg/mL) against Bacillus spizizenii; 820 µM (≈ 257 µg/mL) against Candida albicans; greater than 1630 µM against Candida; 820 µM (≈ 257 µg/mL) against Staphylococcus aureus [2]. In addition, the MIC is greater than 1630 µM against Staphylococcus aureus [3]; 410 µM (≈ 128 µg/mL) against Micrococcus luteus; 410 µM (≈ 128 µg/mL) against Bacillus sp.; greater than 1630 µM with Pseudomonas aeruginosa; 1630 µM (≈ 510 µg/mL) with Escherichia coli; 820 µM (≈ 257 µg/mL) in the test with Saccharomyces cerevisiae. The MIC against Cyberlindnera jadinii came to 410 µM (≈ 128 µg/mL).
For the compound `O=c1c2ccc(F)cc2ncn1CCCCCCBr`, the MIC is greater than 1560 µM in test [1]; 1560 µM (≈ 510 µg/mL) in the test with Aspergillus flavus; 1560 µM (≈ 510 µg/mL) in the test on Bacillus spizizenii; 780 µM (≈ 255 µg/mL) in the test on Candida albicans; greater than 1560 µM against Candida; 390 µM (≈ 128 µg/mL) against Staphylococcus aureus [2]. Moreover, the MIC with Staphylococcus aureus [3] is greater than 1560 µM; against Micrococcus luteus, 390 µM (≈ 128 µg/mL); against Bacillus sp. it was 390 µM (≈ 128 µg/mL); against Pseudomonas aeruginosa, greater than 1560 µM; with Escherichia coli, 780 µM (≈ 255 µg/mL); with Saccharomyces cerevisiae, 780 µM (≈ 255 µg/mL). For the same compound, the MIC in the test with Cyberlindnera jadinii amounted to 390 µM (≈ 128 µg/mL).
For the compound `O=c1c2ccc(F)cc2ncn1CCBr`, the minimal inhibitory concentration (MIC) in test [1] was greater than 1890 µM; against Aspergillus flavus, 1890 µM (≈ 512 µg/mL); in the test with Bacillus spizizenii, 1890 µM (≈ 512 µg/mL); against Candida albicans, 940 µM (≈ 255 µg/mL); against Candida it was greater than 1890 µM; in the test with Staphylococcus aureus [2], 940 µM (≈ 255 µg/mL). Moreover, the minimal inhibitory concentration (MIC) is greater than 1890 µM with Staphylococcus aureus [3]; 470 µM (≈ 127 µg/mL) in the test on Micrococcus luteus; 470 µM (≈ 127 µg/mL) with Bacillus sp.; greater than 1890 µM in the test with Pseudomonas aeruginosa; 1890 µM (≈ 512 µg/mL) against Escherichia coli; 940 µM (≈ 255 µg/mL) in the test on Saccharomyces cerevisiae. In addition, the MIC in the test with Cyberlindnera jadinii came out at 940 µM (≈ 255 µg/mL).
As for `O=c1c2ccc(Cl)cc2ncn1CCCCCCBr`, the minimal inhibitory concentration (MIC) was greater than 1490 µM in [1]; greater than 1490 µM against Aspergillus flavus; 1490 µM (≈ 512 µg/mL) with Bacillus spizizenii; greater than 1490 µM in the test on Candida albicans; greater than 1490 µM against Candida; 740 µM (≈ 254 µg/mL) in the test with Staphylococcus aureus [2]. Moreover, the MIC was greater than 1490 µM against Staphylococcus aureus [3]; 370 µM (≈ 127 µg/mL) in the test on Micrococcus luteus; 740 µM (≈ 254 µg/mL) in the test with Bacillus sp.; greater than 1490 µM in the test with Pseudomonas aeruginosa; 1490 µM (≈ 512 µg/mL) with Escherichia coli; 740 µM (≈ 254 µg/mL) in the test on Saccharomyces cerevisiae. The compound also registered an MIC against Cyberlindnera jadinii of 740 µM (≈ 254 µg/mL).
As to `Cc1ncc([N+](=O)[O-])n1CCCCCCCCCCn1cnc2cc(Cl)ccc2c1=O`, the minimum inhibitory concentration (MIC) in [1] came to 20 µM (≈ 8.92 µg/mL); with Aspergillus flavus, 20 µM (≈ 8.92 µg/mL); in the test on Bacillus spizizenii it was 20 µM (≈ 8.92 µg/mL); in the test with Candida albicans, 20 µM (≈ 8.92 µg/mL); in the test with Candida, 40 µM (≈ 17.8 µg/mL); against Staphylococcus aureus [2], 40 µM (≈ 17.8 µg/mL). The MIC was 20 µM (≈ 8.92 µg/mL) in the test on Staphylococcus aureus [3]; 20 µM (≈ 8.92 µg/mL) against Micrococcus luteus; 20 µM (≈ 8.92 µg/mL) in the test with Bacillus sp.; greater than 1150 µM against Pseudomonas aeruginosa; 20 µM (≈ 8.92 µg/mL) in the test on Escherichia coli; 40 µM (≈ 17.8 µg/mL) with Saccharomyces cerevisiae. Further, the MIC against Cyberlindnera jadinii stood at 20 µM (≈ 8.92 µg/mL).

As a reminder, the MIC is the least concentration at which growth counts as inhibited. Low values mean a more susceptible organism, high ones a less susceptible organism.
